Experimental data: patent US20190350895A1, “PHOTOCHROMATIC MODULATION WITH FLUORESCEIN FOR THE TREATMENT OF PHOTO-OCULODYNIA AND BLEPHAROSPASM” (Baylor College of Medicine, priority 2016, published 2019)

Experiments:
[1] = system: patients with essential blepharospasm; assay: Jankovic rating scale (JRS) sum score, severity plus frequency of eyelid spasms, before and immediately after lens placement; assay type: in vivo, human; settings: sum of severity (0-4) and frequency (0-4) scores immediately after lens placement
Description: (§1) All patients in the study have an established diagnosis of essential blepharospasm currently managed with botulinum toxin injections. Prior to treatment with the fluorescein dye, patients are evaluated for their blink rate as determined by the number of blinks per minute. Patients are also evaluated using the Jankovic rating scale which has 2 components: 1. The severity of the eyelid spasms are rated from 0-4 (0=no spasms, 4=severe incapacitating spasms) and, 2. The frequency of spasms are rated from 0-4 (0=no spasms, 4=persistent eye closure). The sum of the severity score and the frequency score is then computed. Patients are then fitted with a scleral contact lens with normal saline solution mixed with fluorescein dye placed in the fluid reservoir. The blink rate and JRS sum score are then assessed immediately after placement of the lens.

[2] = system: patients with essential blepharospasm; assay: Blink rate before and immediately after placement of a scleral contact lens with fluorescein dye in the fluid reservoir; assay type: in vivo, human; settings: immediately after placement of scleral lens with saline mixed with fluorescein dye
Description: as §1

`O=C1OC2(c3ccc(O)cc3Oc3cc(O)ccc32)c2ccccc21` [fluorescein] was tested, and the “Post JRS” value ([1]; Patient 1, pre JRS 7) was 1, the “Post JRS” value ([1]; Patient 2, pre JRS 6) was 3 and the “Post JRS” value ([1]; Patient 3, pre JRS 6) was 4. The “Post JRS” value ([1]; Patient 4, pre JRS 7) was 4, the “Post JRS” value ([1]; Patient 5, pre JRS 7) was 3 and the Post blink-rate ([2]; Patient 1, pre blink-rate 80) was 10 blinks per minute. The Post blink-rate ([2]; Patient 2, pre blink-rate 50) was 20 blinks per minute, the Post blink-rate ([2]; Patient 3, pre blink-rate 60) was 40 blinks per minute and the Post blink-rate ([2]; Patient 4, pre blink-rate 70) was 35 blinks per minute. For the same compound, the Post blink-rate ([2]; Patient 5, pre blink-rate 70) was 49 blinks per minute.
